According to patent publication US10485235B2, “Aryloxypyrimidinyl ethers as herbicides” (FMC Corporation, priority 2015, dated 2019):

Legend:
Format in all cases: in vivo
[1] = test system: rice (Oryza sativa); test: Test B flooded paddy test, rice; conditions: 250 g ai/ha, Flood; visual rating after 13 to 15 days; scale 0 to 100, 0 is no effect, 100 is complete control
Summary of the method: (§1)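 Visual ratings, 0 = no effect to 100 = complete control, versus controls after 13 to 15 days in greenhouse. Test compounds were added to paddy water kept 3 cm over the soil surface, on plants at 2-leaf stage.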

[2] = test system: kochia (Kochia scoparia); test: Test A preemergence, kochia; conditions: Preemergence, 0 to 100 scale (0 no effect, 100 complete control)
Summary of the method: (§2)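 Test chemicals in a solvent/surfactant mixture were applied as a preemergence directed soil spray on seeded loam–sand, or postemergence to plants 2–10 cm tall at the one- to two-leaf stage. After roughly 10 days in a greenhouse, injury was visually rated versus untreated controls on a 0 (no effect) to 100 (complete control) scale.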

[3] = test system: ducksalad (Heteranthera limosa); test: Test B flooded paddy test, ducksalad; conditions: 250 g ai/ha, Flood; visual rating after 13 to 15 days; scale 0 to 100, 0 is no effect, 100 is complete control
Summary of the method: as §1

[4] = test system: ryegrass, Italian (Italian ryegrass, Lolium multiflorum); test: Test A postemergence, Italian ryegrass; conditions: postemergence, 0 to 100 scale, 0 is no effect, 100 is complete control, approximately 10 days
Summary of the method: as §2

[5] = test system: ragweed (common ragweed, Ambrosia elatior); test: Test A postemergence, ragweed; conditions: postemergence, 0 to 100 scale, 0 is no effect, 100 is complete control, approximately 10 days
Summary of the method: as §2

[6] = test system: corn (Zea mays); test: Test A postemergence, corn; conditions: postemergence, 0 to 100 scale, 0 is no effect, 100 is complete control, approximately 10 days
Summary of the method: as §2

[7] = test system: pigweed (Amaranthus retroflexus); test: Test A preemergence, pigweed; conditions: Preemergence, 0 to 100 scale (0 no effect, 100 complete control)
Summary of the method: as §2

[8] = test system: kochia (Kochia scoparia); test: Test A postemergence, kochia; conditions: postemergence, 0 to 100 scale, 0 is no effect, 100 is complete control, approximately 10 days
Summary of the method: as §2

[9] = test system: barnyardgrass (Echinochloa crus-galli); test: Test A postemergence, barnyardgrass; conditions: postemergence, 0 to 100 scale, 0 is no effect, 100 is complete control, approximately 10 days
Summary of the method: as §2

[10] = test system: ragweed (common ragweed, Ambrosia elatior); test: Test A preemergence, ragweed; conditions: Preemergence, 0 to 100 scale (0 no effect, 100 complete control)
Summary of the method: as §2

[11] = test system: sedge, umbrella (small-flower umbrella sedge, Cyperus difformis); test: Test B flooded paddy test, umbrella sedge; conditions: 250 g ai/ha, Flood; visual rating after 13 to 15 days; scale 0 to 100, 0 is no effect, 100 is complete control
Summary of the method: as §1

[12] = test system: barnyardgrass (Echinochloa crus-galli); test: Test B flooded paddy test, barnyardgrass; conditions: 250 g ai/ha, Flood; visual rating after 13 to 15 days; scale 0 to 100, 0 is no effect, 100 is complete control
Summary of the method: as §1

[13] = test system: wheat (Triticum aestivum); test: Test A postemergence, wheat; conditions: postemergence, 0 to 100 scale, 0 is no effect, 100 is complete control, approximately 10 days
Summary of the method: as §2

[14] = test system: galium (catchweed bedstraw, Galium aparine); test: Test A postemergence, galium; conditions: postemergence, 0 to 100 scale, 0 is no effect, 100 is complete control, approximately 10 days
Summary of the method: as §2

[15] = test system: blackgrass (Alopecurus myosuroides); test: Test A postemergence, blackgrass; conditions: postemergence, 0 to 100 scale, 0 is no effect, 100 is complete control, approximately 10 days
Summary of the method: as §2

[16] = test system: ryegrass, Italian (Italian ryegrass, Lolium multiflorum); test: Test A preemergence, Italian ryegrass; conditions: Preemergence, 0 to 100 scale (0 no effect, 100 complete control)
Summary of the method: as §2

[17] = test system: barnyardgrass (Echinochloa crus-galli); test: Test A preemergence, barnyardgrass; conditions: Preemergence, 0 to 100 scale (0 no effect, 100 complete control)
Summary of the method: as §2

[18] = test system: foxtail, giant (giant foxtail, Setaria faberii); test: Test A postemergence, giant foxtail; conditions: postemergence, 0 to 100 scale, 0 is no effect, 100 is complete control, approximately 10 days
Summary of the method: as §2

[19] = test system: foxtail, giant (giant foxtail, Setaria faberii); test: Test A preemergence, giant foxtail; conditions: Preemergence, 0 to 100 scale (0 no effect, 100 complete control)
Summary of the method: as §2

[20] = test system: pigweed (Amaranthus retroflexus); test: Test A postemergence, pigweed; conditions: postemergence, 0 to 100 scale, 0 is no effect, 100 is complete control, approximately 10 days
Summary of the method: as §2

Structure (SMILES) | Plant response rating, Rice [1] | Plant response rating, Kochia ([2]; 125 g ai/ha) | Plant response rating, Ducksalad [3] | Plant response rating, Ryegrass, Italian ([4]; 125 g ai/ha) | Plant response rating, Ragweed ([5]; 125 g ai/ha) | Plant response rating, Corn ([6]; 125 g ai/ha) | Plant response rating, Pigweed ([7]; 125 g ai/ha) | Plant response rating, Kochia ([8]; 125 g ai/ha) | Plant response rating, Barnyardgrass ([9]; 125 g ai/ha) | Plant response rating, Ragweed ([10]; 125 g ai/ha) | Plant response rating, Sedge, Umbrella [11] | Plant response rating, Barnyardgrass [12] | Plant response rating, Wheat ([13]; 125 g ai/ha) | Plant response rating, Galium ([14]; 125 g ai/ha) | Plant response rating, Blackgrass ([15]; 125 g ai/ha) | Plant response rating, Ryegrass, Italian ([16]; 125 g ai/ha) | Plant response rating, Barnyardgrass ([17]; 125 g ai/ha) | Plant response rating, Foxtail, Giant ([18]; 125 g ai/ha) | Plant response rating, Foxtail, Giant ([19]; 125 g ai/ha) | Plant response rating, Pigweed ([20]; 125 g ai/ha) | further results
FC(F)(F)CCCOc1c(Br)cccc1Oc1ncc(Cl)cn1 [Compound 31] | 25 | 70 | 75 | 50 | 10 | 20 | 100 | 100 | 70 | 10 | 100 | 25 | 10 | 90 | 40 | 40 | 60 | 50 | 100 | 100 | Plant response rating, Kochia ([2]; 31 g ai/ha): 0; Plant response rating, Ryegrass, Italian ([4]; 31 g ai/ha): 10; Plant response rating, Ragweed ([5]; 31 g ai/ha): 0; Plant response rating, Corn ([6]; 31 g ai/ha): 10; Plant response rating, Pigweed ([7]; 31 g ai/ha): 70; Plant response rating, Kochia ([8]; 31 g ai/ha): 90; Plant response rating, Barnyardgrass ([9]; 31 g ai/ha): 20; Plant response rating, Ragweed ([10]; 31 g ai/ha): 0; Plant response rating, Wheat ([13]; 31 g ai/ha): 0; Plant response rating, Galium ([14]; 31 g ai/ha): 40; Plant response rating, Blackgrass ([15]; 31 g ai/ha): 20; Plant response rating, Ryegrass, Italian ([16]; 31 g ai/ha): 0; Plant response rating, Barnyardgrass ([17]; 31 g ai/ha): 10; Plant response rating, Foxtail, Giant ([18]; 31 g ai/ha): 20; Plant response rating, Foxtail, Giant ([19]; 31 g ai/ha): 40; Plant response rating, Pigweed ([20]; 31 g ai/ha): 80
N#Cc1cccc(Oc2ncc(Cl)cn2)c1OCCCCC(F)(F)F [Compound 32] | 40 | 90 | 90 | 30 | 10 | 20 | 100 | 100 | 100 | 10 | 100 | 30 | 30 | 100 | 50 | 30 | 100 | 80 | 100 | 100 | Plant response rating, Kochia ([2]; 31 g ai/ha): 30; Plant response rating, Ryegrass, Italian ([4]; 31 g ai/ha): 10; Plant response rating, Ragweed ([5]; 31 g ai/ha): 10; Plant response rating, Corn ([6]; 31 g ai/ha): 10; Plant response rating, Pigweed ([7]; 31 g ai/ha): 100; Plant response rating, Kochia ([8]; 31 g ai/ha): 100; Plant response rating, Barnyardgrass ([9]; 31 g ai/ha): 60; Plant response rating, Ragweed ([10]; 31 g ai/ha): 0; Plant response rating, Wheat ([13]; 31 g ai/ha): 20; Plant response rating, Galium ([14]; 31 g ai/ha): 70; Plant response rating, Blackgrass ([15]; 31 g ai/ha): 30; Plant response rating, Ryegrass, Italian ([16]; 31 g ai/ha): 10; Plant response rating, Barnyardgrass ([17]; 31 g ai/ha): 30; Plant response rating, Foxtail, Giant ([18]; 31 g ai/ha): 50; Plant response rating, Foxtail, Giant ([19]; 31 g ai/ha): 100; Plant response rating, Pigweed ([20]; 31 g ai/ha): 100
FC(F)(F)CCCCOc1c(Br)cccc1Oc1ncc(Cl)cn1 [Compound 33] | 0 | 20 | 30 | 20 | 10 | 20 | 90 | 90 | 60 | 0 | 95 | 0 | 10 | 90 | 40 | 20 | 50 | 60 | 100 | 100 | Plant response rating, Kochia ([2]; 31 g ai/ha): 0; Plant response rating, Ryegrass, Italian ([4]; 31 g ai/ha): 0; Plant response rating, Ragweed ([5]; 31 g ai/ha): 0; Plant response rating, Corn ([6]; 31 g ai/ha): 10; Plant response rating, Pigweed ([7]; 31 g ai/ha): 10; Plant response rating, Kochia ([8]; 31 g ai/ha): 50; Plant response rating, Barnyardgrass ([9]; 31 g ai/ha): 10; Plant response rating, Ragweed ([10]; 31 g ai/ha): 0; Plant response rating, Wheat ([13]; 31 g ai/ha): 0; Plant response rating, Galium ([14]; 31 g ai/ha): 50; Plant response rating, Blackgrass ([15]; 31 g ai/ha): 10; Plant response rating, Ryegrass, Italian ([16]; 31 g ai/ha): 0; Plant response rating, Barnyardgrass ([17]; 31 g ai/ha): 10; Plant response rating, Foxtail, Giant ([18]; 31 g ai/ha): 20; Plant response rating, Foxtail, Giant ([19]; 31 g ai/ha): 60; Plant response rating, Pigweed ([20]; 31 g ai/ha): 80
CC(COc1c(C#N)cccc1Oc1ncc(Cl)cn1)CC(F)(F)F (stereo not drawn) [Compound 34] | 20 | 80 | 40 | 0 | 10 | 20 | 100 | 90 | 20 | 0 | 75 | 0 | 10 | 70 | 20 | 10 | 70 | 40 | 100 | 100 | Plant response rating, Kochia ([2]; 500 g ai/ha): 100; Plant response rating, Ryegrass, Italian ([4]; 500 g ai/ha): 20; Plant response rating, Ragweed ([5]; 500 g ai/ha): 10; Plant response rating, Corn ([6]; 500 g ai/ha): 40; Plant response rating, Pigweed ([7]; 500 g ai/ha): 100; Plant response rating, Kochia ([8]; 500 g ai/ha): 100; Plant response rating, Barnyardgrass ([9]; 500 g ai/ha): 50; Plant response rating, Ragweed ([10]; 500 g ai/ha): 10; Plant response rating, Wheat ([13]; 500 g ai/ha): 20; Plant response rating, Galium ([14]; 500 g ai/ha): 90; Plant response rating, Blackgrass ([15]; 500 g ai/ha): 60; Plant response rating, Ryegrass, Italian ([16]; 500 g ai/ha): 40; Plant response rating, Barnyardgrass ([17]; 500 g ai/ha): 100; Plant response rating, Foxtail, Giant ([18]; 500 g ai/ha): 90; Plant response rating, Foxtail, Giant ([19]; 500 g ai/ha): 100; Plant response rating, Pigweed ([20]; 500 g ai/ha): 100
FC(F)=C(F)CCOc1c(Br)cccc1Oc1ncc(Cl)cn1 [Compound 38] | 0 | 70 | 75 | 10 | 10 | 20 | 100 | 70 | 30 | 0 | 100 | 0 | 0 | 50 | 10 | 10 | 70 | 40 | 100 | 80 | Plant response rating, Kochia ([2]; 31 g ai/ha): 0; Plant response rating, Ryegrass, Italian ([4]; 31 g ai/ha): 0; Plant response rating, Ragweed ([5]; 31 g ai/ha): 0; Plant response rating, Corn ([6]; 31 g ai/ha): 10; Plant response rating, Pigweed ([7]; 31 g ai/ha): 0; Plant response rating, Kochia ([8]; 31 g ai/ha): 20; Plant response rating, Barnyardgrass ([9]; 31 g ai/ha): 10; Plant response rating, Ragweed ([10]; 31 g ai/ha): 0; Plant response rating, Wheat ([13]; 31 g ai/ha): 0; Plant response rating, Galium ([14]; 31 g ai/ha): 10; Plant response rating, Blackgrass ([15]; 31 g ai/ha): 0; Plant response rating, Ryegrass, Italian ([16]; 31 g ai/ha): 0; Plant response rating, Barnyardgrass ([17]; 31 g ai/ha): 10; Plant response rating, Foxtail, Giant ([18]; 31 g ai/ha): 10; Plant response rating, Foxtail, Giant ([19]; 31 g ai/ha): 30; Plant response rating, Pigweed ([20]; 31 g ai/ha): 40
